Where two headings read alike, the source gives them in different places.
Key:
[1] = in composition of Example 1; 30 and 90 days
Experimental: The composition of Example 1 was subjected to a range of temperatures over a period of time from 30 to 90 days to determine the chemical stability of selected ingredients. […] “FT” refers to freeze thaw conditions (−10° to −20° C.) where the product is exposed to freezing conditions for two days and then allowed to that at controlled room temperature (15° to 30° C.) for the next five days.

[2] = chemical stability of selected ingredients in the composition of Example 3 (HPLC assay); conditions: in composition of Example 3
[3] = 0 days

In the case of `COc1ccc(C(=O)CC(=O)c2ccc(C(C)(C)C)cc2)cc1` [avobenzone], the “ingredient activity after exposure of the formulation to high and low temperatures” value (from here on “ingredient activity after exposure”) [1] is reported as “remained active”, the “ingredient activity after exposure” value ([2]; 30 to 90 days) is reported as “remained active” and the “ingredient content, chemical stability by HPLC” value (“ingredient content” below) [3] is reported as 3.03 % W/W.

For `Oc1ccc(O)cc1` [hydroquinone], the “ingredient activity after exposure” value [1] was “remains active”, the “ingredient activity after exposure” value ([2]; 30 to 90 days) was “remained active” and the “ingredient content” value [3] was 3.95 % W/W.

With `CCCCC(CC)COC(=O)C=Cc1ccc(OC)cc1` (stereo not drawn) [octyl methoxycinnamate] the “ingredient content” value [3] was 7.61 % W/W.

In the case of `COc1ccc(C(=O)c2ccccc2)c(O)c1` [oxybenzone], the “ingredient activity after exposure” value ([2]; 30 to 60 days) is reported as “remained active”, the “ingredient activity after exposure” value ([2]; 30 to 90 days) is reported as “remained active” and the “ingredient content” value ([2]; 30 days, 25°) is reported as 5.98 % W/W. The “ingredient content” value ([2]; 30 days, 30°) was 5.95 % W/W, the “ingredient content” value ([2]; 30 days, 40°) was 6.04 % W/W and the “ingredient content” value ([2]; 60 days, 25°) was 6.04 % W/W. For the same compound, the “ingredient content” value ([2]; 60 days, 30°) was 6.02 % W/W, the “ingredient content” value ([2]; 60 days, 40°) was 6.07 % W/W and the “ingredient content” value ([2]; 90 days, 6°) was 6.05 % W/W. For the same compound, the “ingredient content” value ([2]; 90 days, 25°) was 6.09 % W/W, the “ingredient content” value ([2]; 90 days, 30°) was 6.07 % W/W and the “ingredient content” value ([2]; 90 days, 40°) was 6.06 % W/W. For the same compound, the “ingredient content” value ([2]; 90 days, FT (freeze thaw)) was 6.09 % W/W and the “ingredient content” value ([2]; day 0, 25°) was 6.07 % W/W.
